Laboratory results from ChEMBL document CHEMBL1201862, “PubChem BioAssay data set” (2004).
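These data come from cells grown in 96-well plates and exposed to compound for 48 hours at five concentrations. GI50 marks 50% less growth.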 Calls of active or inactive are those of the source. No stated cut-off is given here; in the data, active = GI50 up to about 1.1 µM and inactive = higher.

Experiments:
Assay in all cases: NCI-60 cell line screen, 48 h
SK-MEL-28 = tested on: SK-MEL-28
EKVX = tested on: EKVX
OVCAR-5 = tested on: OVCAR-5
NCI-H460 = tested on: NCI-H460
SF-539 = tested on: SF-539
NCI-H226 = tested on: NCI-H226
OVCAR-3 = tested on: OVCAR-3
SK-OV-3 = tested on: SK-OV-3
NCI-H23 = tested on: NCI-H23
UACC-62 = tested on: UACC-62
A549 = tested on: A549
SNB-78 = tested on: SNB-78
M19-MEL = tested on: M19-MEL
RXF 393 = tested on: RXF 393
M14 = tested on: M14
CCRF-CEM = tested on: CCRF-CEM
KM-20L2 = tested on: KM-20L2
IGROV-1 = tested on: IGROV-1
SK-MEL-2 = tested on: SK-MEL-2
LXFL 529 = tested on: LXFL 529
SF-295 = tested on: SF-295
DMS-114 = tested on: DMS-114
Malme-3M = tested on: Malme-3M
NCI-H522 = tested on: NCI-H522
RPMI-8226 = tested on: RPMI-8226
XF498 = tested on: XF498
HCT-116 = tested on: HCT-116
786-0 = tested on: 786-0
SW-620 = tested on: SW-620
KM12 = tested on: KM12
SF-268 = tested on: SF-268
HL-60 = tested on: HL-60
SK-MEL-5 = tested on: SK-MEL-5
OVCAR-8 = tested on: OVCAR-8
COLO 205 = tested on: COLO 205
MOLT-4 = tested on: MOLT-4
DMS-273 = tested on: DMS-273
HT-29 = tested on: HT-29
UACC-257 = tested on: UACC-257
UO-31 = tested on: UO-31
HOP-62 = tested on: HOP-62
SNB-75 = tested on: SNB-75
K562 = tested on: K562
U-251 = tested on: U-251
HCC 2998 = tested on: HCC 2998
DLD-1 = tested on: DLD-1
TK-10 = tested on: TK-10
HOP-92 = tested on: HOP-92
LOX IMVI = tested on: LOX IMVI
SN12C = tested on: SN12C
CAKI-1 = tested on: CAKI-1
ACHN = tested on: ACHN
A498 = tested on: A498
SNB-19 = tested on: SNB-19
OVCAR-4 = tested on: OVCAR-4

Measured: GI50

C/C(CC(=O)Nc1cccc(Cl)c1C)=N\NC(=O)c1ccncc1
inactive: SK-MEL-28 > 100 µM | EKVX > 100 µM | OVCAR-5 > 100 µM | NCI-H460 > 100 µM | SF-539 > 100 µM | NCI-H226 > 100 µM | OVCAR-3 > 100 µM | SK-OV-3 > 100 µM | NCI-H23 58.9 µM | UACC-62 > 100 µM | A549 > 100 µM | SNB-78 > 100 µM | M19-MEL > 100 µM | RXF 393 29.1 µM | M14 > 100 µM | CCRF-CEM > 100 µM | KM-20L2 > 100 µM | IGROV-1 > 100 µM | SK-MEL-2 > 100 µM | LXFL 529 > 100 µM | SF-295 > 100 µM | DMS-114 > 100 µM | Malme-3M > 100 µM | NCI-H522 21.4 µM | RPMI-8226 > 100 µM | XF498 > 100 µM | HCT-116 > 100 µM | 786-0 > 100 µM | SW-620 > 100 µM | KM12 > 100 µM | SF-268 > 100 µM | HL-60 > 100 µM | SK-MEL-5 > 100 µM | OVCAR-8 > 100 µM | COLO 205 > 100 µM | MOLT-4 > 100 µM | DMS-273 > 100 µM | HT-29 > 100 µM | UACC-257 > 100 µM | UO-31 > 100 µM | HOP-62 > 100 µM | SNB-75 > 100 µM | K562 > 100 µM | U-251 > 100 µM | HCC 2998 > 100 µM | DLD-1 > 100 µM | TK-10 > 100 µM | HOP-92 > 100 µM | LOX IMVI > 100 µM

CC1=NN(C(=O)c2ccc(Cl)cc2)C(=O)/C1=C/c1c(O)cc(O)c2ccccc12
inactive: SK-MEL-28 > 100 µM | EKVX > 100 µM | OVCAR-5 > 100 µM | NCI-H460 > 100 µM | SF-539 > 100 µM | OVCAR-3 > 100 µM | SN12C > 100 µM | SK-OV-3 > 100 µM | NCI-H23 > 100 µM | UACC-62 > 100 µM | A549 > 100 µM | SNB-78 > 100 µM | M19-MEL > 100 µM | RXF 393 > 100 µM | M14 > 100 µM | CCRF-CEM > 100 µM | KM-20L2 > 100 µM | IGROV-1 > 100 µM | SK-MEL-2 > 100 µM | CAKI-1 > 100 µM | LXFL 529 > 100 µM | ACHN > 100 µM | SF-295 > 100 µM | A498 > 100 µM | DMS-114 > 100 µM | Malme-3M > 100 µM | NCI-H522 > 100 µM | RPMI-8226 > 100 µM | XF498 > 100 µM | HCT-116 > 100 µM | SNB-19 > 100 µM | 786-0 > 100 µM | SW-620 > 100 µM | KM12 > 100 µM | SF-268 > 100 µM | HL-60 > 100 µM | SK-MEL-5 > 100 µM | OVCAR-4 > 100 µM | OVCAR-8 > 100 µM | COLO 205 > 100 µM | MOLT-4 > 100 µM | HT-29 > 100 µM | UACC-257 > 100 µM | UO-31 > 100 µM | HOP-62 > 100 µM | K562 > 100 µM | U-251 > 100 µM | HCC 2998 > 100 µM | DLD-1 > 100 µM | TK-10 > 100 µM | HOP-92 > 100 µM | LOX IMVI > 100 µM
